Measurements from patent US10670605B2, “Cysteine reactive probes and uses thereof” (The Scripps Research Institute, priority 2015, dated 2020).

Columns and labels:
Experiment in all cases: Competitive isoTOP-ABPP, cell lysates
Format in all cases: binding
[1] = target: PRMT1 C109 (Q99873) (Homo sapiens, UniProt Q99873); conditions: for isoTOP-ABPP reactivity ratio, Q99873_C109: 500 μm
[2] = target: T1, AIP C122 (O00170) (Homo sapiens, UniProt O00170); conditions: for isoTOP-ABPP reactivity ratio, O00170_C122: 500 μm
T1 sequence (O00170 1-330): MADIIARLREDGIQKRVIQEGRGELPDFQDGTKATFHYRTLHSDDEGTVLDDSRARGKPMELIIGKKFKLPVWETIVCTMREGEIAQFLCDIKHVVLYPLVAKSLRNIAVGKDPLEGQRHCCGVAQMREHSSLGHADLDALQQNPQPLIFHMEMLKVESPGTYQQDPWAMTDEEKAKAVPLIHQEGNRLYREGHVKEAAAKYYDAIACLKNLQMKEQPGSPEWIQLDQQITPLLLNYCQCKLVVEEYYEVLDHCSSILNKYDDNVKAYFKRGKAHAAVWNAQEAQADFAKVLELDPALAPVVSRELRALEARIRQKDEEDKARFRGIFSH

[3] = target: T2, UCHL3 C95 (P15374) (Homo sapiens, UniProt P15374); conditions: for isoTOP-ABPP reactivity ratio, P15374_C95: 500 μm
T2 sequence (P15374 1-230): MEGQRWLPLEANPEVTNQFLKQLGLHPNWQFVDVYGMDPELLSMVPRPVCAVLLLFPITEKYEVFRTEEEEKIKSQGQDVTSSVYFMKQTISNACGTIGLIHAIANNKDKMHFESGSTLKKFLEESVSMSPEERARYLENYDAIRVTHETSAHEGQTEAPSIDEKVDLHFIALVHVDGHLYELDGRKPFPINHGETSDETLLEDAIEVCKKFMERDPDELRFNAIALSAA

[4] = target: SAMHD1 C522 (Q9Y3Z3) (Homo sapiens, UniProt Q9Y3Z3); conditions: for isoTOP-ABPP reactivity ratio, Q9Y3Z3_C522: 500 μm
[5] = target: SMARCC2 C145 (Q8TAQ2) (Homo sapiens, UniProt Q8TAQ2); conditions: for isoTOP-ABPP reactivity ratio, Q8TAQ2_C145: 500 μm
[6] = target: UBE2L3 C86 (P68036) (Homo sapiens, UniProt P68036); conditions: for isoTOP-ABPP reactivity ratio, P68036_C86: 500 μm
[7] = target: GSTP1 C48 (P09211) (Homo sapiens, UniProt P09211); conditions: for isoTOP-ABPP reactivity ratio, P09211_C48: 500 μm
[8] = target: GNB2L1 C182 (P63244) (Homo sapiens, UniProt P63244); conditions: for isoTOP-ABPP reactivity ratio, P63244_C182: 500 μm, in-vitro_ramos_231
[9] = target: T3, PDIA6 C190 (Q15084) (Homo sapiens, UniProt Q15084); conditions: for isoTOP-ABPP reactivity ratio, Q15084_C190: 500 μm
T3 sequence (Q15084 20-440): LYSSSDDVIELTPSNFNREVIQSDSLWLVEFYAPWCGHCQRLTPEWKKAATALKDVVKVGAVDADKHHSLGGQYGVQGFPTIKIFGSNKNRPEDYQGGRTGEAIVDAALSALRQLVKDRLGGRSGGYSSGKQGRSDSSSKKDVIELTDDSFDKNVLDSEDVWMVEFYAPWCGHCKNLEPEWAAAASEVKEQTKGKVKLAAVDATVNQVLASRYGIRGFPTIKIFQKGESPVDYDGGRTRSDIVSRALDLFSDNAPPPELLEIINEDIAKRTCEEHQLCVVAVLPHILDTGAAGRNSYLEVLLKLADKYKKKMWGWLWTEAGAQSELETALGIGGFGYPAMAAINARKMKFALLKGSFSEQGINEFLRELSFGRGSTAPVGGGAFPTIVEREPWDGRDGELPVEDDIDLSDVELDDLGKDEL

[10] = target: ZNF217 C286 (O75362) (Homo sapiens, UniProt O75362)

SMILES	isoTOP-ABPP ratio (reactivity profile), Q99873_C109 ([1]; 500 μm in-vitro ramos)	isoTOP-ABPP ratio (reactivity profile), O00170_C122 ([2]; 500 μm in-vitro ramos)	isoTOP-ABPP ratio (reactivity profile), P15374_C95 ([3]; 500 μm in-vitro ramos)	isoTOP-ABPP ratio (reactivity profile), Q9Y3Z3_C522 ([4]; 500 μm in-vitro ramos)	isoTOP-ABPP ratio (reactivity profile), Q8TAQ2_C145 ([5]; 500 μm in-vitro ramos)	isoTOP-ABPP ratio (reactivity profile), P68036_C86 ([6]; 500 μm in-vitro ramos)	isoTOP-ABPP ratio (reactivity profile), P09211_C48 ([7]; 500 μm in-vitro ramos)	isoTOP-ABPP ratio (reactivity profile), P63244_C182 ([8]; 500 μm in-vitro ramos)	isoTOP-ABPP ratio (reactivity profile), Q15084_C190 ([9]; 500 μm in-vitro ramos)	isoTOP-ABPP ratio (reactivity profile), Q99873_C109 ([1]; 500 μm in-vitro ramos_231)	isoTOP-ABPP ratio (reactivity profile), O00170_C122 ([2]; 500 μm in-vitro ramos_231)	isoTOP-ABPP ratio (reactivity profile), P09211_C48 ([7]; 500 μm in-vitro ramos_231)	isoTOP-ABPP ratio (reactivity profile), P63244_C182 ([8]; 500 μm in-vitro ramos_231)	isoTOP-ABPP ratio (reactivity profile), Q15084_C190 ([9]; 500 μm in-vitro ramos_231)	isoTOP-ABPP reactivity ratio, Q99873_C109 ([1]; in-vitro_ramos)	isoTOP-ABPP reactivity ratio, Q99873_C109 ([1]; in-vitro_ramos_231)	isoTOP-ABPP reactivity ratio, O00170_C122 ([2]; in-vitro_ramos)	isoTOP-ABPP reactivity ratio, P15374_C95 ([3]; in-vitro_ramos)	isoTOP-ABPP reactivity ratio, P15374_C95 ([3]; in-vitro_ramos_231)	isoTOP-ABPP reactivity ratio, Q8TAQ2_C145 ([5]; in-vitro_ramos)	further results
O=C(/C=C/c1ccccc1)Nc1cc(C(F)(F)F)cc(C(F)(F)F)c1 [compound 26]	0.9	0.9	0.8	0.9	0.9	0.7	0.9	1.0	0.9	–	–	–	–	–	–	–	–	–	–	–	–
COc1ccccc1OCCNC(=O)CCl [compound 28]	1.1	1.2	0.9	–	1.2	–	1.5	1.1	1.6	0.8	0.9	1.3	1.0	1.1	–	–	–	–	–	–	isoTOP-ABPP ratio (reactivity profile), P15374_C95 ([3]; 500 μm in-vitro ramos_231): 1.1; isoTOP-ABPP ratio (reactivity profile), Q9Y3Z3_C522 ([4]; 500 μm in-vitro ramos_231): 1.0; isoTOP-ABPP ratio (reactivity profile), Q8TAQ2_C145 ([5]; 500 μm in-vitro ramos_231): 1.1; isoTOP-ABPP ratio (reactivity profile), P68036_C86 ([6]; 500 μm in-vitro ramos_231): 1.4; isoTOP-ABPP ratio (reactivity profile), O75362_C286 ([10]; 500 μm in-vitro ramos): 1.0; isoTOP-ABPP ratio (reactivity profile), O75362_C286 ([10]; 500 μm in-vitro ramos_231): 1.0
CC(C)(C)c1cc(NC(=O)CCl)on1 [compound 32]	–	–	–	–	–	–	–	–	–	–	–	–	–	–	1.8	1.7	1.9	1.0	1.2	20.0	isoTOP-ABPP reactivity ratio, O00170_C122 ([2]; in-vitro_ramos_231): 3.7; isoTOP-ABPP reactivity ratio, Q9Y3Z3_C522 ([4]; in-vitro_ramos): 1.8; isoTOP-ABPP reactivity ratio, Q8TAQ2_C145 ([5]; in-vitro_ramos_231): 20.0; isoTOP-ABPP reactivity ratio, P68036_C86 ([6]; in-vitro_ramos): 0.9; isoTOP-ABPP reactivity ratio, P68036_C86 ([6]; in-vitro_ramos_231): 1.1; isoTOP-ABPP reactivity ratio, P09211_C48 ([7]; in-vitro_ramos): 1.4; isoTOP-ABPP reactivity ratio, P09211_C48 ([7]; in-vitro_ramos_231): 1.9; isoTOP-ABPP reactivity ratio, P63244_C182 [8]: 1.9; isoTOP-ABPP reactivity ratio, Q15084_C190 ([9]; in-vitro_ramos): 20.0; isoTOP-ABPP reactivity ratio, Q15084_C190 ([9]; in-vitro_ramos_231): 20.0
C=CC(=O)N(Cc1cccnc1)c1cc(C(F)(F)F)cc(C(F)(F)F)c1 [compound 31]	–	–	–	–	–	–	–	–	–	–	–	–	–	–	1.3	1.0	0.6	0.7	0.9	0.9	isoTOP-ABPP reactivity ratio, Q9Y3Z3_C522 ([4]; in-vitro_ramos_231): 1.5; isoTOP-ABPP reactivity ratio, Q8TAQ2_C145 ([5]; in-vitro_ramos_231): 1.1; isoTOP-ABPP reactivity ratio, P68036_C86 ([6]; in-vitro_ramos): 1.3; isoTOP-ABPP reactivity ratio, P68036_C86 ([6]; in-vitro_ramos_231): 1.7; isoTOP-ABPP reactivity ratio, P09211_C48 ([7]; in-vitro_ramos): 1.3; isoTOP-ABPP reactivity ratio, P09211_C48 ([7]; in-vitro_ramos_231): 2.0; isoTOP-ABPP reactivity ratio, P63244_C182 [8]: 1.3; isoTOP-ABPP reactivity ratio, Q15084_C190 ([9]; in-vitro_ramos): 1.2; isoTOP-ABPP reactivity ratio, Q15084_C190 ([9]; in-vitro_ramos_231): 1.3
O=C(CCl)N1CCOCC1 [compound 22]	1.0	1.1	0.7	0.8	1.2	0.8	0.7	–	4.2	1.0	1.3	0.9	1.6	2.2	–	–	–	–	–	–	–
CC(Br)C(=O)Nc1cc(C(F)(F)F)cc(C(F)(F)F)c1 (stereo not shown) [compound 24]	1.0	1.3	1.1	1.1	5.4	–	1.6	2.6	1.7	–	–	–	–	–	–	–	–	–	–	–	–
